Legend:
BRM = biological target: T1, BRM (Homo sapiens, UniProt P51531); experiment: ATPase catalytic activity assay (ADP-Glo), BRM; assay type: biochemical; conditions: Table 10; for Ratio (BRG1 IC50 (μM) divided by BRM IC50 (μM)): ATPase assay, selectivity BRG1/BRM; for IC50: ATPase catalytic activity assay (ADP-Glo)
T1 construct: made in house; host or cells: High Five insect cells
Method in brief: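 Reaction holds 30 nM BRM, 20 nM salmon sperm DNA and 400 μM ATP in 20 mM Tris pH 8, 20 mM MgCl2, 50 mM NaCl, 0.1% Tween-20, 1 mM DTT. Incubated 1 h at room temperature. ADP formed is detected by ADP-Glo luminescence.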

BRG-1 = biological target: T2, BRG-1 (Homo sapiens, UniProt P51532); experiment: ATPase catalytic activity assay (ADP-Glo), BRG-1; assay type: biochemical; conditions: Table 10, read-out: BRG1 IC50
T2 construct: made in house; host or cells: High Five insect cells
Method in brief: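 Signal reflects ADP produced by the enzyme, quantified as luminescence after unused ATP is cleared and ADP is reconverted to ATP for the luciferase reaction; both steps run at room temperature, 40 and 60 min respectively.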

T2 sequence (P51532 whole entry): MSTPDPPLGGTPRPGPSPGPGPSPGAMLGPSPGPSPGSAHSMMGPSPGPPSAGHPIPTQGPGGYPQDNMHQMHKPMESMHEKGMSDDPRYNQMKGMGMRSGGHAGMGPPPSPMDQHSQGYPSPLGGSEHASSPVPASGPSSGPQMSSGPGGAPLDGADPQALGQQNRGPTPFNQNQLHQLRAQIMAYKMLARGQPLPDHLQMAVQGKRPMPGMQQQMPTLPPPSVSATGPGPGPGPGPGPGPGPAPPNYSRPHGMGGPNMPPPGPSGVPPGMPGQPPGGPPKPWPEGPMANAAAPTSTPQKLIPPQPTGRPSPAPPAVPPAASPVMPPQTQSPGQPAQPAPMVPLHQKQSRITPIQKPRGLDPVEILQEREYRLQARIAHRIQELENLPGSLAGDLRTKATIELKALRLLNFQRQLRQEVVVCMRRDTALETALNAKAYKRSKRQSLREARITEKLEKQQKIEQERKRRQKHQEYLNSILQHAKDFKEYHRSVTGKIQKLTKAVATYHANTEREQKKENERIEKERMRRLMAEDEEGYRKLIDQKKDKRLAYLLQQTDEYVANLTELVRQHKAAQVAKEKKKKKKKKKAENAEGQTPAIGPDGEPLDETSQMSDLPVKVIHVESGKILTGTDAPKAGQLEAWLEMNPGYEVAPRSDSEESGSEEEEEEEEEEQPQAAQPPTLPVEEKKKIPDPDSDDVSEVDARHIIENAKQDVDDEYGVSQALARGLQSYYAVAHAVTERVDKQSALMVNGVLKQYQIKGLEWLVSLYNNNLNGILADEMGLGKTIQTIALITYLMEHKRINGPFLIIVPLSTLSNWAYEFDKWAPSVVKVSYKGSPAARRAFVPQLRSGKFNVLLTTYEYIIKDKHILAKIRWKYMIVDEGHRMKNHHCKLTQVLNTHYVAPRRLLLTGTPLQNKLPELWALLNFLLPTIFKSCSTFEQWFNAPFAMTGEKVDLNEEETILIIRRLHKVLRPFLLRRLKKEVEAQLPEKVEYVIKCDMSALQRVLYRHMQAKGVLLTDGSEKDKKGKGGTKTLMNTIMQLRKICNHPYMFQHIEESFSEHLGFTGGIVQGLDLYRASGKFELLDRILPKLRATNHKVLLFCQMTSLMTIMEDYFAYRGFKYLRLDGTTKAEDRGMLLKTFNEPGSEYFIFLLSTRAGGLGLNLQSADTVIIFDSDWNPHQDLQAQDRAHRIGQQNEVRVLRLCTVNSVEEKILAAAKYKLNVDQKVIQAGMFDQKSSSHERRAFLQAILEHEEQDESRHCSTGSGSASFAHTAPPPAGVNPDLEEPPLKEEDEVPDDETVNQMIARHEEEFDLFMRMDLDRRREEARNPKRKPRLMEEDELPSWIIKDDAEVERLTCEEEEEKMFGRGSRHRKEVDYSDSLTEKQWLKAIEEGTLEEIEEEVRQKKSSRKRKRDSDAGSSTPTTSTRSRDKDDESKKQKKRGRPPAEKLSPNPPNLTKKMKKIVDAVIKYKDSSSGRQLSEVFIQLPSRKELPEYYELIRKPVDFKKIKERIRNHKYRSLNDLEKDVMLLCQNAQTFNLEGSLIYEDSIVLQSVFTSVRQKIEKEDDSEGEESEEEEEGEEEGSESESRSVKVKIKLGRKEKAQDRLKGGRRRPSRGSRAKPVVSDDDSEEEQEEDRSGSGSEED
T1 sequence (P51531 whole entry): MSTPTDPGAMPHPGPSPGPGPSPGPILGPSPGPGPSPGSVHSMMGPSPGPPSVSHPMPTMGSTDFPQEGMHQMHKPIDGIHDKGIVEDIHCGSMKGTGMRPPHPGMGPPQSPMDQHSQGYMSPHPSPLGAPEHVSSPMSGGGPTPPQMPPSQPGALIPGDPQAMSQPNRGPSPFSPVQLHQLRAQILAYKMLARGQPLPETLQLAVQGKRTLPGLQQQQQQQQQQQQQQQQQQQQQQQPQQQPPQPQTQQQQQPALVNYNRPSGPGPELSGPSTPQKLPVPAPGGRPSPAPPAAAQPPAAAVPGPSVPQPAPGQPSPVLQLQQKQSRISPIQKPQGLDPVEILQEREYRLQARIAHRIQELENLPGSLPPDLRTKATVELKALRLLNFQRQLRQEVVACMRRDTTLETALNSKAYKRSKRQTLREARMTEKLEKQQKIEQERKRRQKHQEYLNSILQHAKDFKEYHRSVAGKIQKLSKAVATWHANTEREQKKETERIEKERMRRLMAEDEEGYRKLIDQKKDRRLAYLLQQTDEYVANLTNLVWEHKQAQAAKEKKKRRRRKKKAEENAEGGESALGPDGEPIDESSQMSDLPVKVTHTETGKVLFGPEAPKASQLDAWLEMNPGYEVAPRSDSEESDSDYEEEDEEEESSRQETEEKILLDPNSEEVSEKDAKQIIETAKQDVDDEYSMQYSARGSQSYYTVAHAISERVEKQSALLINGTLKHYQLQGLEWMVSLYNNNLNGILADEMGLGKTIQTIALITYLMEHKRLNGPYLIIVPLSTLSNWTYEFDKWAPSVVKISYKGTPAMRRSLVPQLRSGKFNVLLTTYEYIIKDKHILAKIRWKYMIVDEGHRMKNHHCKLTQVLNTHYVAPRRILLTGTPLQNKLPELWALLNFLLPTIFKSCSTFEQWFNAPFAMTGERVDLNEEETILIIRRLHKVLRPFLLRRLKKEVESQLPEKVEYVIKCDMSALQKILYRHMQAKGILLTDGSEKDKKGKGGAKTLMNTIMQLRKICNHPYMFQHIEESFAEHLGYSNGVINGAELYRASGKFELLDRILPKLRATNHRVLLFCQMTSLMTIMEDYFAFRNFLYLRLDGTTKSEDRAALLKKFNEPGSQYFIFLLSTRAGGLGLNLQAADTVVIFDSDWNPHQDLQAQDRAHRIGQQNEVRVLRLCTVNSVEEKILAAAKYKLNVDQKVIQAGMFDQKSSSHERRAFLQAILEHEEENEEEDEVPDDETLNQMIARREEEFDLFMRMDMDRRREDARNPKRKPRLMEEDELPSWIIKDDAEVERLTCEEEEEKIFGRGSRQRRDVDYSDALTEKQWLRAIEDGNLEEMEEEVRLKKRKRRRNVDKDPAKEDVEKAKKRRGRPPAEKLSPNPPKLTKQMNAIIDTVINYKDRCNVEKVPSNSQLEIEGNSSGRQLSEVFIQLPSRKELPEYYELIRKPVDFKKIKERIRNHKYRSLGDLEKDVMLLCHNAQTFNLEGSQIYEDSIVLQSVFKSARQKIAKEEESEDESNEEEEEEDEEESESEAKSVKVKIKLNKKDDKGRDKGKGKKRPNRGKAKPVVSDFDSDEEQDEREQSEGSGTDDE

SMILES | Ratio (BRG1 IC50 (μM) divided by BRM IC50 (μM)) (BRM) | IC50 (BRM) [nM] | IC50 (BRG-1) [nM]
CCOc1cccc(-c2ccc3cnc(CNC(=O)c4cc(F)c5c(c4)S(=O)(=O)[C@@H](F)CCO5)cc3n2)n1 [Compound 170] | 24.59 | 5.3 | 122
Cc1cc(C(=O)NCc2cc3nc(-c4cccc(OC(F)F)n4)ccc3cn2)cc2c1COC[C@H](F)S2(=O)=O [Compound 206] | 31.39 | 6.2 | 197
COc1nc(C(F)F)ccc1-c1ccc2cnc(CNC(=O)c3cc(C)c4c(c3)S(=O)(=O)[C@@H](F)COC4)cc2n1 [Compound 131] | 17.91 | 4.5 | 70.8
[2H]C([2H])([2H])Oc1nc(C(F)F)ccc1-c1ccc2cnc(CNC(=O)c3cc(F)c4c(c3)S(=O)(=O)[C@@H](F)CCO4)cc2n1 [Compound 135] | 23.88 | 4.6 | 110
COc1nc(C(F)F)ccc1-c1ccc2cnc(CNC(=O)c3cc(F)c4c(c3)S(=O)(=O)[C@@H](F)COC4)c(F)c2n1 [Compound 167] | 10.82 | 5.3 | 56.7
C[C@@H]1CN(c2cccc(-c3ccc4cnc(CNC(=O)c5cc(F)c6c(c5)S(=O)(=O)[C@@H](F)CO[C@@H]6C)cc4n3)n2)C[C@H](C)O1 [Compound 134] | 20.63 | 4.6 | 98.6
COc1ccc(-c2ccc3cnc(CNC(=O)c4cc(F)c5c(c4)S(=O)(=O)[C@@H](F)CCO5)cc3n2)nc1[C@@H]1CC1(F)F [Compound 144] | 25.02 | 4.8 | 109
O=C(NCc1cc2cc(N3CCOc4cc(C(F)F)cnc43)ccc2cn1)c1cc(F)c2c(c1)S(=O)(=O)[C@@H](F)CCO2 [Compound 303] | 10.70 | 10.1 | 108
CC(C)c1cnc2c(c1)OCCN2c1ccc2cnc(CNC(=O)c3cc(F)c4c(c3)S(=O)(=O)[C@@H](F)CCO4)cc2n1 [Compound 157] | 18.45 | 5.1 | 96.8
COc1ccc(-c2ccc3cnc(CNC(=O)c4cc(Cl)c5c(c4)S(=O)(=O)[C@@H](F)COC5)cc3n2)nc1[C@@H]1CC1(F)F [Compound 294] | 35.16 | 9.8 | 344
O=C(NCc1cc2nc(-c3cccc([C@H]4CC4(F)F)n3)ccc2cn1)c1cc(F)c2c(c1)S(=O)(=O)[C@@H](F)CCO2 [Compound 250] | 26.90 | 8 | 220
C[C@@H]1CN(c2cnc3c(c2)OCCN3c2ccc3cnc(CNC(=O)c4cc(F)c5c(c4)S(=O)(=O)[C@@H](F)CCO5)cc3n2)C[C@@H]1F [Compound 284] | 11.05 | 9.5 | 105
Cc1cc(C(=O)NCc2cc3nc(N4CCOc5cc(N6CC[C@H]6C)cnc54)ccc3cn2)cc2c1OCC[C@H](F)S2(=O)=O [Compound 160] | 17.82 | 5.1 | 76
C[C@H](NC(=O)c1cc(F)c2c(c1)S(=O)(=O)[C@@H](F)COC2)c1cc2nc(N3CCOc4cc(C5CC5)cnc43)ccc2cn1 [Compound 278] | 9.67 | 9.2 | 75.5
O=C(NCc1cc2nc(N3CCOc4cc(N5CC(CF)C5)cnc43)ccc2cn1)c1cc(F)c2c(c1)S(=O)(=O)[C@@H](F)CCO2 [Compound 248] | 16.34 | 7.8 | 128
O=C(NCc1cc2nc(N3CCOc4ccc(N5CC(F)(F)C5)nc43)ccc2cn1)c1cc(F)c2c(c1)S(=O)(=O)[C@@H](F)CCO2 [Compound 254] | 21.58 | 8 | 190
O=C(NCc1cc2cc(-c3cncc(C4CCC4)n3)ccc2cn1)c1cc(F)c2c(c1)S(=O)(=O)[C@@H](F)CCO2 [Compound 283] | 28.86 | 9.4 | 385
O=C(NCc1cc2nc(N3CCOc4cc(N5CC(F)C5)cnc43)ccc2cn1)c1cc(F)c2c(c1)S(=O)(=O)[C@@H](F)CCO2 [Compound 139] | 24.09 | 4.7 | 147
COc1nc(C(F)F)ccc1-c1ccc2cnc(CNC(=O)c3cc(Cl)c4c(c3)S(=O)(=O)[C@@H](F)COC4)cc2n1 [Compound 221] | 27.18 | 6.9 | 178
C[C@@H]1CN(c2cccc(-c3ccc4cnc(CNC(=O)c5cc(OC(F)F)c6c(c5)S(=O)(=O)[C@@H](F)CCO6)cc4n3)n2)C[C@H](C)O1 [Compound 316] | 17.77 | 18.3 | 325
CCn1ccc2c(-c3ccc4cnc(CNC(=O)c5cc(F)c6c(c5)S(=O)(=O)[C@@H](F)CCO6)cc4n3)ccnc21 [Compound 256] | 13.83 | 8.1 | 112
[2H]C1([2H])OC([2H])([2H])[C@H](F)S(=O)(=O)c2cc(C(=O)NCc3cc4nc(N5CCOc6ccc(C(F)F)nc65)ccc4cn3)cc(F)c21 [Compound 163] |  | 5.2 | 116
COc1cc(F)ccc1-c1ccc2cnc(CNC(=O)c3cc(F)c4c(c3)S(=O)(=O)[C@@H](F)CCO4)cc2n1 [Compound 266] | 18.84 | 8.7 | 154
COc1nc([C@H](F)C(F)F)ccc1-c1ccc2cnc(CNC(=O)c3cc(F)c4c(c3)S(=O)(=O)[C@@H](F)CCO4)cc2n1 [Compound 287] | 11.77 | 9.6 | 113

Stronger by IC50 (BRM), values ahead:

Ratio (BRG1 IC50 (μM) divided by BRM IC50 (μM)) (BRM) | IC50 (BRM) [nM] | IC50 (BRG-1) [nM] | SMILES
12.84 | 4.2 | 50.6 | O=C(NCc1cc2nc(N3CCOc4ccc([C@@H]5C[C@H]5C(F)F)nc43)ccc2cn1)c1cc(F)c2c(c1)S(=O)(=O)[C@@H](F)CCO2 [Compound 123]
17.52 | 3.9 | 87.2 | O=C(NCc1cc2nc(N3CCOc4cc(N5CC[C@H](F)[C@@H](F)C5)cnc43)ccc2cn1)c1cc(F)c2c(c1)S(=O)(=O)[C@@H](F)CCO2 [Compound 109]
10.21 | 3.6 | 42.7 | CO[C@@H]1CN(c2cccc(-c3ccc4cnc(CNC(=O)c5cc(F)c6c(c5)S(=O)(=O)[C@@H](F)CCO6)cc4n3)n2)C[C@H]1C [Compound 104]
25.97 | 3.1 | 95.7 | [2H]C1([2H])Oc2c(F)cc(C(=O)NCc3cc4nc(-c5ccc(C(F)F)nc5OC)ccc4cn3)cc2S(=O)(=O)[C@@]([2H])(F)C1([2H])[2H] [Compound 84]
9.59 | 2.8 | 26.7 | O=C(NCc1cc2nc(N3CCOc4cc([C@@H]5CC5(F)F)cnc43)ccc2cn1)c1cc(F)c2c(c1)S(=O)(=O)[C@@H](F)COC2 [Compound 74]
17.64 | 2.7 | 48.3 | COc1cnc2c(c1)OCCN2c1ccc2cnc(CNC(=O)c3cc(F)c4c(c3)S(=O)(=O)[C@@H](F)CCO4)cc2n1 [Compound 71]
17.37 | 2.7 | 46.2 | CO[C@H]1CN(c2cccc(-c3ccc4cnc(CNC(=O)c5cc(F)c6c(c5)S(=O)(=O)[C@@H](F)CCO6)cc4n3)n2)C[C@@H]1C [Compound 67]
18.72 | 2.5 | 42.1 | Cc1cnc2c(c1)OCCN2c1ccc2cnc(CNC(=O)c3cc(F)c4c(c3)S(=O)(=O)[C@@H](F)CCO4)cc2n1 [Compound 51]
23.60 | 2.5 | 64.4 | O=C(NCc1cc2nc(N3CCOc4ccc(C(F)F)nc43)ccc2cn1)c1cc(F)c2c(c1)S(=O)(=O)[C@@H](F)COC2 [Compound 58]
20.83 | 2.3 | 47.7 | COc1nc([C@@H](F)CF)ccc1-c1ccc2cnc(CNC(=O)c3cc(F)c4c(c3)S(=O)(=O)[C@@H](F)COC4)cc2n1 [Compound 46]
18.96 | 1.9 | 36.7 | O=C(NCc1cc2nc(N3CCOc4cc(C(F)F)cnc43)ccc2cn1)c1cc(F)c2c(c1)S(=O)(=O)[C@@H](F)COC2 [Compound 32]
11.52 | 1.8 | 19.5 | CCOc1ccnc2c1OCCN2c1ccc2cnc(CNC(=O)c3cc(Cl)c4c(c3)S(=O)(=O)[C@@H](F)COC4)cc2n1 [Compound 27]
 | 1.6 | 37.9 | [2H]C1([2H])OC([2H])([2H])[C@H](F)S(=O)(=O)c2cc(C(=O)NCc3cc4nc(-c5ccc(C(F)F)nc5OC)ccc4cn3)cc(F)c21 [Compound 23]
16.50 | 1.6 | 28.3 | Cc1cc(C(=O)NCc2cc3nc(-c4cccc(N5C[C@@H](C)O[C@@H](C)C5)n4)ccc3cn2)cc2c1COC[C@H](F)S2(=O)=O [Compound 21]
10.27 | 1.5 | 17.8 | C[C@@H]1CN(c2nccc(-c3ccc4cnc(CNC(=O)c5cc(F)c6c(c5)S(=O)(=O)[C@@H](F)CCO6)cc4c3)n2)C[C@H](C)O1 [Compound 16]

— patent US12139487B2, “Compounds and uses thereof” (Foghorn Therapeutics Inc., priority 2022, dated 2024)
